{"source": "patent US10233498B2", "about": "“Therapeutic agent for emphysema and COPD” (TRUSTEES OF BOSTON UNIVERSITY, priority 2011, dated 2019)", "key": {"β1-integrin": {"tested_on": "β1-integrin", "assay": "Immunoblotting for β1-integrin in HFL-1 cells", "format": "cell-based, human", "conditions": "HFL-1, 48 hrs, FIG. 8A", "protocol": "(§1) Normal human diploid lung fibroblasts (HFL-1) were obtained from the American Type Culture Collection (Manassas, Va.) and used between 3-5 consequent passages after thawing of frozen cells. HFL-1 cells were placed in 6-well culture plates (BD Biosciences, Mississauga, ON) at a density of 1×10^5 cells per well in complete cell culture medium (CCM, DMEM supplemented with 10% FBS, 2 mM L-glutamine and 1% of antibiotic solution; Invitrogen, Burlington, ON). Cells were cultured at 37° C. and 5% CO2 in CCM before they reached 80% confluence. Cells were quiesced in CCM with 1% FBS overnight. […] Cells exposed to the CCM with added DMSO served as a vehicle control. Experiments were repeated 3 times using HFL-1 cells during 3 consequent cell culture passages. Total RNA was isolated from HFL-1 monolayers using RNeasy Plus Mini-Kit (Qiagen, Valencia, Calif.) as per manufacturer's instructions. Quantity and quality of the isolated RNA was determined using Agilent 2100 Bioanalyzer (Agilent Technologies, Mississauga, ON). Isolated RNA was processed and hybridized onto the Human Gene 1.0 ST array (Affymetrix Inc., Santa Clara, Calif.) according to the manufacturer's protocol. Transcript-level gene expression estimates were generated using RMA with the Entrez gene CDF version v11. […] Gene expression profiles were ranked for each treatment by t-statistic.\nProduction of β1-integrin by HFL-1 cells was assessed by immunoblotting as previously described (Pechkovsky, D. V. et al. The Journal of biological chemistry 2008 283:12898-908). Briefly, total cell protein was extracted from cultured HFL-1 using Cell Protein Extraction Buffer (Biosource, Camarillo, Calif.), quantified by DC Protein Assay (Bio-Rad, Hercules, Calif.), resolved by SDS-PAGE, and transferred to nitrocellulose membranes. Membranes were probed with mouse anti-human β1-integrin antibody (clone 419127, R&D Systems, Minneapolis, Minn.) and anti-β-tubulin antibody (Millipore, Billerica, Mass.) as a loading control. […] Density of the bands was quantified using Odyssey software 2.1 (LI-COR Biosciences). […]"}, "[1]": {"tested_on": "human lung fibroblasts (HFL-1)", "assay": "Gene expression profiling (microarray, GSEA) of treated HFL-1 fibroblast cultures", "format": "cell-based", "protocol": "GSEA was used to explore connections to other datasets. Genes in this dataset were ranked by the t-statistic of the Lm term in the linear model represented by equation (2) shown above. […] For those datasets where raw data was available, the Entrez gene chip definition file (CDF) was used to obtain RMA normalized expression values. Genes from these datasets were ranked by t-statistic. For dichotomous variables, the t-statistic was calculated from a comparison of expression levels observed in the two groups (e.g. cases and controls). For continuous variables, the t-statistic was from a linear model of expression as a function of the continuous variable (e.g. FEV1). Datasets that measured the effect of TGFβ ligands on gene expression in various cell types included Chambers et al., (The American journal of pathology 2003162:533-46) Verrecchia et al., (The Journal of biological chemistry 2001 276:17058-62), GSE749712, GSE545010, GSE665314, GSE1171013, and GSE172415. Lists of genes that change with TGFβ exposure were taken from the publication associated with the microarray data. If lists of at least 25 genes could not be obtained from the literature, the raw data was used from GEO and normalized as described above. The 200 genes with the highest fold change and the 200 genes with the lowest fold change were used as gene sets and compared to a list of all genes from this dataset ranked by their correlation to Lm.\nas §1"}}, "note": "“Also recorded” adds a separate entry of the source.", "data": [{"substance": "Glycine-Histidine-Lysine [GHK]", "values": [{"measurement": "β1-integrin (ITGB1) protein levels vs vehicle (DMSO) treated controls", "setting": "β1-integrin; GHK 0.1 or 10 nM, p<0.01", "result": "significantly induced; also recorded: increase"}, {"measurement": "GSEA: genes that increase after treatment among genes whose expression decreases with increasing emphysema", "setting": "[1]; GHK 0.1 nM or 10 nM (either concentration), HFL-1, FIG. 7A", "result": "enriched"}, {"measurement": "GSEA: 200 genes most induced by GHK at 1 μM in CMap cancer cell lines among genes that increase with treatment in HFL-1", "setting": "[1]; GHK 0.1 nM, 48 hrs, HFL-1, FIG. 7B", "result": "enriched"}, {"measurement": "ITGB1 expression profile", "setting": "[1]; GHK 0.1 nM, HFL-1, p=0.004", "result": "significantly upregulated"}, {"measurement": "GSEA: genes whose expression is decreased with increasing emphysema severity among genes induced by treatment", "setting": "[1]; GHK 10 nM, 48 hrs, HFL-1, FIG. 7C", "result": "enriched"}, {"measurement": "GSEA: genes whose expression is altered by GHK treatment among genes that change with TGFβ1 treatment", "setting": "[1]; GHK at either concentration (0.1 nM, 10 nM), HFL-1, FIGS. 7B-7D", "result": "enriched"}]}, {"substance": "TGFβ1: recombinant human TGFβ1 (10 ng/ml, PeproTech)", "values": [{"measurement": "β1-integrin (ITGB1) protein levels vs vehicle (DMSO) treated controls", "setting": "β1-integrin; TGFβ 10 ng/mL, p<0.05", "result": "significantly induced"}, {"measurement": "β1-integrin (ITGB1) protein levels vs vehicle (DMSO) treated controls", "setting": "β1-integrin; TGFβ 10 ng/mL, p<0.05, listed as TGFβ", "result": "increase"}, {"measurement": "GSEA: genes most induced by treatment among genes that decrease in expression with increasing regional emphysema severity", "setting": "[1]; TGFβ1 10 ng/ml, human lung fibroblasts, FDR<0.05, FIG. 7A", "result": "enriched"}]}]}
